In EP1953147A1, “HETEROCYCLIC COMPOUND AND MEDICINAL APPLICATION THEREOF” (priority 2005, dated 2007):

Tested on: ΔG/SEAP/HCV E1E2
Experiment: Effect of test substance on cell infection with HCV pseudotype virus (SEAP reporter assay in HepG2 cells)
Type: cell-based
Settings: Hepatitis C virus

| Structure (SMILES) | IC50 |
| --- | --- |
| COc1cc(OC)cc(-c2nn(-c3cc(NCCO)ccc3C(F)(F)F)c(=O)c3c2CCC3)c1 [Example 91, 4-(3,5-dimethoxy-phenyl)-2-[5-(2-hydroxy-ethylamino)-2-trifluoromethyl-phenyl]-2,5,6,7-tetrahydro-cyclopenta[d]pyridazin-1-one] | < 100 nM |
| COc1cc(OC)cc(-c2nn(-c3cc(N(C)CCO)ccc3C(F)(F)F)c(=O)c3c2CCC3)c1 [Example 92, 4-(3,5-dimethoxy-phenyl)-2-{5-[(2-hydroxy-ethyl)-methyl-amino]-2-trifluoromethyl-phenyl}-2,5,6,7-tetrahydro-cyclopenta[d]pyridazin-1-one] | < 100 nM |
| COc1cc(-c2nn(-c3cc(N4CC[C@H](O)C4)ccc3C(F)(F)F)c(=O)c3c2CCC3)ccn1 [Example 93, 2-[5-((S)-3-hydroxy-pyrrolidin-1-yl)-2-trifluoromethyl-phenyl]-4-(2-methoxy-pyridin-4-yl)-2,5,6,7-tetrahydro-cyclopenta[d]pyridazin-1-one] | 100 to 10000 nM |
| COc1cc(OC)cc(-c2nn(-c3cc(NCC(=O)OC(C)(C)C)ccc3C(F)(F)F)c(=O)c3c2CCC3)c1 [Example 94, {3-[4-(3,5-dimethoxy-phenyl)-1-oxo-1,5,6,7-tetrahydro-cyclopenta[d]pyridazin-2-yl]-4-trifluoromethyl-phenylamino}-acetic acid tert-butyl ester] | 100 to 10000 nM |
| O=c1c2c(c(-c3ccncc3)nn1-c1cc(N3CC[C@H](O)C3)ccc1C(F)(F)F)CCC2 [Example 95, 2-[5-((S)-3-hydroxy-pyrrolidin-1-yl)-2-trifluoromethyl-phenyl]-4-pyridin-4-yl-2,5,6,7-tetrahydro-cyclopenta[d]pyridazin-1-one] | 100 to 10000 nM |
| O=c1c2c(c(-c3ccccc3Cl)nn1-c1cc(N3CC[C@H](O)C3)ccc1C(F)(F)F)CCC2 [Example 96, 4-(2-chloro-phenyl)-2-[5-((S)-3-hydroxy-pyrrolidin-1-yl)-2-trifluoromethyl-phenyl]-2,5,6,7-tetrahydro-cyclopenta[d]pyridazin-1-one] | 100 to 10000 nM |
| COc1cc(OC)cc(-c2nn(-c3cc(NCC(=O)O)ccc3C(F)(F)F)c(=O)c3c2CCC3)c1 [Example 97, {3-[4-(3,5-dimethoxy-phenyl)-1-oxo-1,5,6,7-tetrahydro-cyclopenta[d]pyridazin-2-yl]-4-trifluoromethyl-phenylamino}-acetic acid] | < 100 nM |
| NC(=O)c1cccc(-c2nn(-c3cc(N4CC[C@H](O)C4)ccc3C(F)(F)F)c(=O)c3c2CCC3)c1 [Example 98, 3-{3-[5-((S)-3-hydroxy-pyrrolidin-1-yl)-2-trifluoromethyl-phenyl]-4-oxo-4,5,6,7-tetrahydro-3H-cyclopenta[d]pyridazin-1-yl}-benzamide] | 100 to 10000 nM |
| NC(=O)c1ccc(-c2nn(-c3cc(N4CC[C@H](O)C4)ccc3C(F)(F)F)c(=O)c3c2CCC3)cc1 [Example 99, 4-{3-[5-((S)-3-hydroxy-pyrrolidin-1-yl)-2-trifluoromethyl-phenyl]-4-oxo-4,5,6,7-tetrahydro-3H-cyclopenta[d]pyridazin-1-yl}-benzamide] | 100 to 10000 nM |
| CCCNc1ccc(C(F)(F)F)c(-n2nc(-c3cc(OC)cc(OC)c3)c3c(c2=O)CCC3)c1 [Example 100, 4-(3,5-dimethoxy-phenyl)-2-(5-propylamino-2-trifluoromethyl-phenyl)-2,5,6,7-tetrahydro-cyclopenta[d]pyridazin-1-one] | < 100 nM |
| CCCN(C)c1ccc(C(F)(F)F)c(-n2nc(-c3cc(OC)cc(OC)c3)c3c(c2=O)CCC3)c1 [Example 101, 4-(3,5-dimethoxy-phenyl)-2-[5-(methyl-propylamino)-2-trifluoromethyl-phenyl]-2,5,6,7-tetrahydro-cyclopenta[d]pyridazin-1-one] | 100 to 10000 nM |
| COc1cc(OC)cc(-c2nn(-c3cc(N4CC[C@H](O)C4)ccc3C(F)(F)F)c(=O)c3c2CCN3Cc2ccccc2)c1 [Example 102, 1-benzyl-4-(3,5-dimethoxy-phenyl)-6-[5-((S)-3-hydroxy-pyrrolidin-1-yl)-2-trifluoromethyl-phenyl]-1,2,3,6-tetrahydro-pyrrolo[2,3-d]pyridazin-7-one] | < 100 nM |
| O=c1c2c(c(-c3cccnc3)nn1-c1cc(N3CC[C@H](O)C3)ccc1C(F)(F)F)CCC2 [Example 103, 2-[5-((S)-3-hydroxy-pyrrolidin-1-yl)-2-trifluoromethyl-phenyl]-4-pyridin-3-yl-2,5,6,7-tetrahydro-cyclopenta[d]pyridazin-1-one] | 100 to 10000 nM |
| O=c1c2c(c(-c3ccccc3Br)nn1-c1cc(N3CC[C@H](O)C3)ccc1C(F)(F)F)CCC2 [Example 104, 4-(2-bromo-phenyl)-2-[5-((S)-3-hydroxy-pyrrolidin-1-yl)-2-trifluoromethyl-phenyl]-2,5,6,7-tetrahydro-cyclopenta[d]pyridazin-1-one] | 100 to 10000 nM |
| O=c1c2c(c(-c3ccccc3F)nn1-c1cc(N3CC[C@H](O)C3)ccc1C(F)(F)F)CCC2 [Example 105, 4-(2-fluoro-phenyl)-2-[5-((S)-3-hydroxy-pyrrolidin-1-yl)-2-trifluoromethyl-phenyl]-2,5,6,7-tetrahydro-cyclopenta[d]pyridazin-1-one] | 100 to 10000 nM |
| COc1cc(OC)cc(-c2nn(-c3ccc(Br)cc3C(F)(F)F)c(=O)c3c2CCC3)c1 [Example 106, 2-(4-bromo-2-trifluoromethyl-phenyl)-4-(3,5-dimethoxy-phenyl)-2,5,6,7-tetrahydro-cyclopenta[d]pyridazin-1-one] | 100 to 10000 nM |
| COc1cc(OC)cc(-c2nn(-c3ccccc3C(F)(F)F)c(=O)c3c2CCC3)c1 [Example 107, 4-(3,5-dimethoxy-phenyl)-2-(2-trifluoromethylphenyl)-2,5,6,7-tetrahydro-cyclopenta[d]pyridazin-1-one] | 100 to 10000 nM |
| COc1cc(OC)cc(-c2nn(-c3ccc(N(C)C)cc3C(F)(F)F)c(=O)c3c2CCC3)c1 [Example 108, 4-(3,5-dimethoxy-phenyl)-2-(4-dimethylamino-2-trifluoromethyl-phenyl)-2,5,6,7-tetrahydro-cyclopenta[d]pyridazin-1-one] | 100 to 10000 nM |
| COc1ccccc1-c1nn(-c2cc(N3CC[C@H](O)C3)ccc2C(F)(F)F)c(=O)c2c1CCC2 [Example 109, 2-[5-((S)-3-hydroxy-pyrrolidin-1-yl)-2-trifluoromethyl-phenyl]-4-(2-methoxy-phenyl)-2,5,6,7-tetrahydro-cyclopenta[d]pyridazin-1-one] | 100 to 10000 nM |
| O=c1c2c(c(-c3ccccn3)nn1-c1cc(N3CC[C@H](O)C3)ccc1C(F)(F)F)CCC2 [Example 110, 2-[5-((S)-3-hydroxy-pyrrolidin-1-yl)-2-trifluoromethyl-phenyl]-4-pyridin-2-yl-2,5,6,7-tetrahydro-cyclopenta[d]pyridazin-1-one] | 100 to 10000 nM |
| O=c1c2c(c(-c3ccccc3O)nn1-c1cc(N3CC[C@H](O)C3)ccc1C(F)(F)F)CCC2 [Example 111, 4-(2-hydroxy-phenyl)-2-[5-((S)-3-hydroxy-pyrrolidin-1-yl)-2-trifluoromethyl-phenyl]-2,5,6,7-tetrahydro-cyclopenta[d]pyridazin-1-one] | 100 to 10000 nM |
| CN(C)c1ccc(-c2nn(-c3cc(N4CC[C@H](O)C4)ccc3C(F)(F)F)c(=O)c3c2CCC3)cc1 [Example 112, 4-(4-dimethylamino-phenyl)-2-[5-((S)-3-hydroxy-pyrrolidin-1-yl)-2-trifluoromethyl-phenyl]-2,5,6,7-tetrahydro-cyclopenta[d]pyridazin-1-one] | < 100 nM |
